Test results reported in US20180280370A1, “DOSAGE REGIMEN FOR A PHOSPHATIDYLINOSITOL 3-KINASE INHIBITOR” (Novartis AG, priority 2015, published 2018).
Read-outs that look alike come from different tables or passages of the source.

Experiments:
[1] = Continuous blood glucose measurement via radio-telemetry in conscious freely moving rats; type: in vivo, Brown Norway rats; conditions: for normalization of blood glucose in between 2 doses: steady state
Experimental: Animals and maintenance conditions: Experiments were performed in female nude Rowett rats Hsd: RH-Fox1rnu or female Brown-Norway (BN) rats (Harlan (The Netherlands). Animals were 6-9 weeks of age at time of application of the compound. Animals were housed under Optimized Hygienic Conditions in Makrolon type III cages (max. 2 animals per cage) with free access to food and water. They were allowed to adapt for at least 6 days before the experiment was started.
Compound A was prepared for dosing as homogenous suspensions in 1% carboxymethyl cellulose: 0.5% Tween® 80: 98.5% deionized water. Fresh suspensions were prepared once every 7 days and stored at 4° C. Compound A or vehicle was administered orally at a volume of 10 mL/kg.
Blood Glucose Measurements Via Radio-Telemetry Technology (HD-XG Radio Telemetry Transmitter; Data Sciences International):
Blood glucose levels were measured continuously in conscious non-restrained freely moving rats by the method described in Brockway et al., Journal of Diabetes Science and Technology., 9(4):771-81 (2015), which is incorporated herein by reference in its entirety. Briefly, the 1.4 cc telemetry device provides direct continuous blood glucose readings along with temperature and activity for 4 weeks or longer. The device was used in non-tumor bearing Brown Norway (BN) rats. Each animal was surgically instrumented with glucose sensors in the abdominal aorta and the device placed in the intraperitoneal cavity. Continuous glucose readings were recorded with the Dataquest A.R.T. data acquisition system. Reference glucose values were measured from tail vein blood samples using the Nova StatStrip glucometer twice per week. Each animal was measured in cyclic runs of 1 minute for 10 seconds with a sampling rate of 1 Hz. Mean values for blood glucose levels, body temperature and motor activity were then computed and stored. Fifteen minutes or hourly averages were determined using the interval averaging routine on the Dataquest Analysis Software (Dataquest A.R.T, version 4.36; Data Sciences). Blood glucose values are expressed in mmol/L, body temperature in degree Celsius (° C.) and motor activity in number of movements (units) per minute.
(§1) Absolute values for primary tumor growth and body weight were used to make the statistical comparisons between groups (one way ANOVA followed by Dunnett's test for normally distributed data; ANOVA on Ranks for not normally distributed data followed by Dunnett's test for equal group size or Dunn's for unequal group size). Absolute values for blood glucose (calculated mean over 6 hours' time periods) and PK data were used to make the statistical comparisons between groups (two-tailed Student's t-tests). The significant level was set at p<0.05. All statistical calculations were carried out using SigmaStat.

[2] = tested on: advanced solid malignancies carrying an alteration in the PIK3CA gene; conditions: cited from earlier work
[3] = Plasma PK after oral administration in freely moving catheterized rats with automated blood sampling; type: in vivo, Brown Norway rats; conditions: day 1 or 4 (steady state), 50 mg/kg p.o. qd; 2, 4, 6, 8, 10, 12, 18 and 24h post treatment
Description: Determination of Pharmacokinetic (PK) Parameters after Oral Administration of Compound A in Freely Moving Catheterized Rats Using Automated Blood Sampling (ABS) Technology:
The highly automated ABS system (Instech ABS2™) allows for unattended blood sample collection via an in-dwelling venous catheter placed in the jugular or femoral vein. For all animals, cannulas were filled with 1:1 heparin glycerol solution when not on study. The ABS freely-moving system is a well-recognized method to reduce stress during blood sampling and it only marginally impedes the animal in its freedom to move, drink, eat and sleep. Furthermore, this method allows obtaining pharmacokinetic parameters at night time (active phase of the animal).
as §1

[4] = tested on: Rat1-myr-p110α subcutaneous xenografts; assay: Antitumor efficacy in Rat1-myr-p110α tumor bearing nude rats; type: in vivo; conditions: for body weight changes, 10 A.M. vs 5 p.m. dosing / tumor volume inhibition, 10 A.M. (ALTERNATIVE SCHEDULE 1) vs 5 p.m. dosing: 14 consecutive days
Experimental: Animals and maintenance conditions: Experiments were performed in female nude Rowett rats Hsd: RH-Fox1rnu or female Brown-Norway (BN) rats (Harlan (The Netherlands). Animals were 6-9 weeks of age at time of application of the compound. Animals were housed under Optimized Hygienic Conditions in Makrolon type III cages (max. 2 animals per cage) with free access to food and water. They were allowed to adapt for at least 6 days before the experiment was started. Cell line and cell culture: Rat1-Myr-p110α cells were grown in Dulbecco's Modified Eagle Medium (DMEM) culture medium containing 4.5 g/l glucose supplemented with 10% heat-inactivated fetal calf serum (FCS), 2 mM L-glutamine, 1 mM sodium pyruvate and incubated at 37° C. in a 5% CO2 humidified atmosphere. Cells were harvested with trypsin-EDTA, re-suspended in culture medium (with additives) and counted with a Casy® system. Finally, cells were centrifuged, suspended in ice-cold Hanks' balanced salt solution (HBSS) at a concentration of 3×10^7 cells/ml. Cell culture reagents were purchased from BioConcept (Allschwil, Switzerland). Rat1-myr-p110α cells were generated by the method described in Maira et al., Molecular Cancer Therapeutics, 11:317-328 (2012), which is incorporated herein by reference in its entirety. Briefly, Rat1 cells were transfected to stably express the constitutively active form of the catalytic PI3K class I p110 isoforms a by addition of a myristylation signal to the N-terminus. Rat1-Myr-p110α tumors were established by subcutaneous injection of […] in 100 μL HBSS (Sigma #H8264) into the right flank of nude rats. For the efficacy experiments, treatments were initiated when the mean tumor volumes were approx. 900-1200 mm^3 (21 to 23 days post tumor cells injection). Compound A was prepared for dosing as homogenous suspensions in 1% carboxymethyl cellulose: 0.5% Tween® 80: 98.5% deionized water. Fresh suspensions were prepared once every 7 days and stored at 4° C. Compound A or vehicle was administered orally at a volume of 10 mL/kg. Tumor volumes were measured with calipers and determined according to the formula: length×diameter^2×π/6. In addition to presenting changes of tumor volumes over the course of treatments, antitumor activity is expressed as T/C % (mean change of tumor volume of treated animals/mean change of tumor volume of control animals)×100. Regressions (%) were calculated according to the formula ((mean tumor volume at end of treatment−mean tumor volume at start of treatment)/mean tumor volume at start of treatment)×100. Body weights and tumor volumes were recorded two to three times a week. Absolute values for primary tumor growth and body weight were used to make the statistical comparisons between groups (one way ANOVA followed by Dunnett's test for normally distributed data; ANOVA on Ranks for not normally distributed data followed by Dunnett's test for equal group size or Dunn's for unequal group size). Absolute values for blood glucose (calculated mean over 6 hours' time periods) and PK data were used to make the statistical comparisons between groups (two-tailed Student's t-tests). The significant level was set at p<0.05. All statistical calculations were carried out using SigmaStat.

advanced solid tumors = conditions: cited from earlier work
[5] = daily administration, human patients

Cc1nc(NC(=O)N2CCC[C@H]2C(N)=O)sc1-c1ccnc(C(C)(C)C(F)(F)F)c1 [Compound A, (S)-Pyrrolidine-1,2-dicarboxylic acid 2-amide 1-({4-methyl-5-[2-(2,2,2-trifluoro-1,1-dimethyl-ethyl)-pyridin-4-yl]-thiazol-2-yl}-amide)]
normalization of blood glucose in between 2 doses ([1]; 50 mg/kg p.o. qd, dosing before the active phase (5 p.m.)): could not be achieved | normalization of blood glucose in between 2 doses ([1]; 50 mg/kg p.o. qd, dosing before the inactive phase (10 a.m.)): allowed blood glucose to normalize in between 2 doses | change in glucose level ([1]; 50 mg/kg p.o. qd, steady state (Day 4), n=6): transient glucose level increase | effect on blood glucose levels ([1]; day 1 of treatment, 50 mg/kg p.o. qd dosed at 5 PM (active phase)): slight hyperglycemia | effect on blood glucose levels ([1]; day 1 of treatment, 50 mg/kg p.o. qd dosed at 10 AM (inactive phase)): slight hyperglycemia | period of remaining transient hyperglycemia after treatment discontinuation ([1]; recovery day 1, group dosed before the active phase (5 p.m.), 50 mg/kg p.o. qd): up to 12 h | blood glucose after treatment discontinuation ([1]; start of recovery day 1, group dosed before the inactive phase (10 a.m.), 50 mg/kg p.o. qd): already normalized to baseline levels | effect on blood glucose levels ([1]; steady state (Day 4-5 of daily treatment), 50 mg/kg p.o. qd): transient hyperglycemia profile | Disease control rate (complete response, partial response or stable disease) ([2]; 150 mg/BID, 95% CI: 38.4-88.2): 66.7% | confirmed partial responses ([2]; 150 mg/BID): 2 patients | confirmed partial responses ([2]; 270 mg/QD): 2 patients | confirmed partial responses ([2]; 350 mg/QD): 1 patients | Disease control rate (complete response, partial response or stable disease) ([2]; 400 mg/QD, 95% CI: 40.1-66.0): 53.2% | confirmed partial responses ([2]; 400 mg/QD): 2 patients | MTD ([2]; QD, in patients): 400 mg | confirmed partial responses ([2]; all doses, of 132 evaluable patients): 7 patients | patients with induced hyperglycemia [2, 5]: 49% | partial responses to treatment ([2]; of 132 evaluable patients, as of Mar. 10, 2014, oral 30-450 mg q.d. or 120-200 mg b.i.d.): 15 patients | plasma PK profile, 10 AM vs 5 PM dosing [3]: did not revealed any significant differences | anti-tumor efficacy ([4]; 14 mg/kg p.o. qd, 2 weeks of treatment): stasis | body weight changes, 10 A.M. vs 5 p.m. dosing ([4]; 14 mg/kg p.o. qd): very similar pattern | tumor volume inhibition, 10 A.M. (ALTERNATIVE SCHEDULE 1) vs 5 p.m. dosing ([4]; 14 mg/kg p.o. qd): No significant differences | tumor regression ([4]; 25 mg/kg p.o. qd, 2 weeks of treatment): 50% | body weight changes, 10 A.M. vs 5 p.m. dosing ([4]; 25 mg/kg p.o. qd): very similar pattern | tumor volume inhibition, 10 A.M. (ALTERNATIVE SCHEDULE 1) vs 5 p.m. dosing ([4]; 25 mg/kg p.o. qd): No significant differences

Nc1cc(C(F)(F)F)c(-c2cc(N3CCOCC3)nc(N3CCOCC3)n2)cn1 [Compound B, 4-(trifluoromethyl)-5-(2,6-dimorpholinopyrimidin-4-yl)pyridin-2-amine]
patients with induced hyperglycemia (advanced solid tumors; [5]): 31% | unconfirmed partial responses (advanced solid tumors; parotid gland carcinoma, epithelioid hemangiothelioma, ER+ breast cancer): three | confirmed partial response (advanced solid tumors; triple-negative breast cancer, 83 patients enrolled): One
